Assay results as given in US6653345B2, “C-C chemokine synthesis inhibitor” (Toray Industries, Inc., priority 1997, dated 2003).

Tests used:
[1] = tested on: MCP-1 production of THP-1 cells; experiment: MCP-1 production of THP-1 cells stimulated with LPS; type: cell-based, human; conditions: for MCP-1 production of THP-1 cells (effect in words): 10 μg/ml LPS, compound added before LPS, supernatant 24 hours after stimulation; for Inhibition rate of MCP-1 production of THP-1 cells: same method as Example 1 (LPS), concentration not given
Method: The action of beraprost (BPS) on MCP-1 production was examined by using human monocyte/macrophage system leukemic cells THP-1. Lipopolysaccharide (LPS: Difco Corp.) reactive substrains were isolated from THP-1 cells (obtained from ATCC Corp.), and cultured in a RPMI 1640 medium (Gibco Corp.) containing 10% FCS in a flask. The THP-1 cells (1×10^5 cells) were dispensed to a 12-well plate, and activated with 10 μg/ml of LPS. BPS was added 5 minutes before LPS stimulation. A cell supernatant was obtained 24 hours after stimulation, and the amount of MCP-1 production was measured by using a human MCP-1 eraser kit (R&D Corp.). The amount of production was calculated based on a calibration curve formed in the range of 31.2 to 2000 pg/ml by using MCP-1 standards contained in the kit.
The actions of prostaglandin I2 (PGI2), prostaglandin E1 (PGE1), and prostaglandin E2 (PGE2) on MCP-1 production were examined by the same method as Example 1. As a result, MCP-1 production was inhibited by PGI2, PGE1, and PGE2 (FIG. 6).
The actions of the compounds shown in the table below on MCP-1 production by the same method as Example 1. The action of each of the compounds was shown by an inhibition rate. As a result, MCP-1 production was inhibited by these compounds (Table 2).

[2] = tested on: MCP-1 production of human peripheral blood monocytes; experiment: MCP-1 production of human peripheral blood-derived monocytes stimulated with LPS; type: cell-based
From the text: The action of BPS on MCP-1 production was studied by using human peripheral blood-derived monocytes. The heparinized peripheral blood of a healthy person was superposed on a histo-pack (Sigma Corp.), and centrifuged to obtain a monocyte layer. The thus-obtained monocyte layer was reacted with magnetic beads (Miltenyi Biotec Corp.) of anti—CD3 and anti—CD19, and monocytes were purified by a negative selection method using a MACS column (Miltenyi Biotec Corp.). The thus-obtained monocytes were re-suspended in a RPMI 1640 medium so that 1×10^6 cells/ml of cells were obtained. The cells were dispensed to a 48-well plate, and activated with 10 ng/ml of LPS. BPS was added 5 minutes before LPS stimulation. A cell supernatant was obtained 24 hours after stimulation, and the amount of MCP-1 produced was measured by using a human MCP-1 eraser kit. The amount of production was calculated based on a calibration curve formed in the range of 31.2 to 2000 pg/ml by using MCP-1 standards contained in the kit.
(§1) The action of prostaglandin J2 (PGJ2) on MCP-1 production due to LPS or TPA simulation was studied by the same method as Examples 3 and 8 using monocytes derived from the human peripheral blood. PGJ2 was added 1 minute before stimulation. As a result, MCP-1 production due to stimulation by either LPS or TPA was inhibited by PGJ2(Table 3).

[3] = tested on: streptozotocin-induced diabetic rats; experiment: Neurotransmission rate of the ischiatic nerve in streptozotocin-induced diabetic rats; type: in vivo, rat
[4] = tested on: MCP-1 production of human peripheral blood monocytes; experiment: MCP-1 production of human peripheral blood monocytes stimulated with TPA; type: cell-based
Method: Monocytes derived from the human peripheral blood were isolated by the same method as Example 3, and stimulated with 25 nM 12-o-tetradecanoylphorbol 13-acetate (TPA) to induce MCP-1 production. The action of BPS on MCP-1 production was studied.
as §1

[5] = tested on: MCP-1 mRNA of THP-1 cells; experiment: Expression of MCP-1 mRNA of THP-1 cells stimulated with LPS; type: cell-based, human; conditions: 10 μg/ml LPS, RNA 24 hours after stimulation
Method: The action of BPS on MCP-1 production was examined by using human monocyte/macrophage system leukemic cells THP-1 and the amount of mRNA expression as an index. LPS reactive substrains were isolated from THP-1 cells, and cultured in a RPMI 1640 medium containing 10% FCS in a flask. THP-1 cells (1×10^6 cells) were dispensed to a petri dish having a diameter of 10 cm, and activated with 10 μg/ml of LPS. BPS was added 5 minutes before LPS stimulation. The total of RNA was extracted with a LiCl-urea solution (6M urea/3M LiCl/5 mM EDTA) 24 hours after stimulation, and dissolved in a TE solution (10 mm Tris-HCl/lmM EDTA, pH 8.0), and then proteins were removed with phenol and chloroform, followed by RNA recovery by ethanol precipitation. RNA was developed by formaldehyde-modified 1% agarose gel, and transferred to a Hybond-N filter (Amersham Corp.), and then MCP-1 mRNA was detected by using a ^32 human MCP-1 probe. The detection was carried out by using a X-ray film or imaging film, and the amount of expression was digitized by BAS2000.

[6] = tested on: MCP-3 production of THP-1 cells; experiment: MCP-3 production of THP-1 cells stimulated with LPS; type: cell-based, human; conditions: 10 μg/ml LPS, supernatant 24 hours after stimulation
Method: The action of BPS on MCP-3 production was examined by using human monocyte/macrophage system leukemic cells THP-1. LPS reactive substrains were isolated from THP-1 cells, and cultured in a RPMI 1640 medium containing 10% FCS in a flask. THP-1 cells (1×10^6 cells) were dispensed to a 12-well plate, and activated with 10 μg/ml of LPS. BPS was added 5 minutes before LPS stimulation. A cell supernatant was obtained 24 hours after stimulation, and the amount of the MCP-3 produced was measured by using a MCP-3 detection method developed by the inventors. The amount of production was calculated based on a calibration curve formed in the range of 0.195 to 12.5 ng/ml by using MCP-3 standards.

[7] = tested on: MCP-1 amount in blood; experiment: MCP-1 amount in LPS-induced blood of streptozotocin diabetic rats; type: in vivo, rat
Method: SD male rats were intravenously administered with 45 mg/kg streptozotocin to induce diabetes. At the eighth week after 2 mg/kg of LPS was administered to the rats to measure the MCP-1 amount in the blood before administration and 3 and 6 hours after administration. BPS was orally administered to the rats 30 minutes before LPS administration. Rats of the same age as the diabetic rat group were used as a normal group.

[8] = tested on: glomerulonephritis rat model; experiment: Glomerulonephritis rat model (anti-glomerular basement membrane antibody); type: in vivo
Method: A glomerular basement membrane was administered with an antibody to form a glomerulonephritis rat model. The rats used were 9-week old male WKY rats which were purchased from Japan Charles River. The antibody was obtained by immunizing the rat glomerular basement membrane against rabbits. […] A glomerular lesion such as formation of the crescent was also confirmed by pathological findings, and an irreversible glomerulonephritis model could be formed by administering the antibody to the anti-glomerular basement membrane. MCP-1 production in the kidney was increased with the passage of days after administration of the antibody to produce infiltration of leukocytes such as macrophages and the like. 1 mg/kg of BPS was orally administered on consecutive days to study the action of BPS on MCP-1 production and infiltration of the macrophages. The MCP-1 production was studied by purifying messenger RNA (mRNA) from the rat kidneys, and determining the amount of MCP-1 mRNA expression by quantitative PCR. The macrophage infiltration was studied by immunostaining with an anti-macrophage antibody (ED-1), and then counting the macrophages infiltrated into the glomeruli under a microscope. […] Using the same glomerulonephritis model, the action of BPS on the amount of urea protein was studied 4 days and 7 days after administration of the antibody.

[9] = tested on: RANTES production of THP-1 cells; experiment: RANTES production of THP-1 cells stimulated with LPS; type: cell-based, human; conditions: LPS stimulation, 10 μM PGJ2 (5177 without PGJ2)
Method: THP-1 cells were prepared by the same method as Example 1, and stimulated with LPS to induce RANTES production. The amount of RANTES production was measured by RANTES eraser kit (R&D Corp.). The action of PGJ2 on RANTES production was studied.

CCCCC[C@H](O)/C=C/[C@@H]1[C@H]2C/C(=C/CCCC(=O)O)O[C@H]2C[C@H]1O [PGI2, prostaglandin I2]
MCP-1 production of THP-1 cells (effect in words) [1]: inhibited

CC#CCC(C)[C@H](O)/C=C/[C@@H]1[C@H]2c3cccc(CCCC(=O)O)c3O[C@H]2C[C@H]1O (mixture of isomers) [BPS, beraprost]
MCP-1 production of human peripheral blood monocytes (effect in words) ([2]; 10 ng/ml LPS, supernatant 24 hours after stimulation): inhibits dose-dependently
decrease in the neurotransmission rate due to diabetes (effect in words) [3]: significantly improved
MCP-1 production of THP-1 cells (effect in words) [1]: inhibits dose-dependently
MCP-1 produced ([4]; 25 nM TPA stimulation, 100 nM BPS (224.7 without BPS)): 184 pg/1×10^6 cells
expression of MCP-1 mRNA of THP-1 cells (effect in words) [5]: inhibits dose-dependently
MCP-3 production of THP-1 cells (effect in words) [6]: inhibits dose-dependently
MCP-1 amount in blood ([7]; BPS oral 30 minutes before 2 mg/kg LPS, 3 hours after): 7.27 ± 2.55 ng/mL
MCP-1 amount in blood ([7]; BPS oral 30 minutes before 2 mg/kg LPS, 6 hours after): 4.82 ± 4.40 ng/mL
MCP-1 amount in blood ([7]; BPS oral 30 minutes before LPS, before LPS administration): 0.39 ± 0.13 ng/mL
MCP-1 mRNA expression in kidney (effect in words) ([8]; 1 mg/kg BPS oral on consecutive days, 4 days and 7 days after antibody, quantitative PCR): inhibition
infiltration of macrophage per glomerulus (effect in words) ([8]; 1 mg/kg BPS oral on consecutive days, 4 days and 7 days after antibody, vs distilled water group): significantly inhibited
amount of urea protein (effect in words) ([8]; 1 mg/kg BPS oral, 4 days and 7 days after administration of the antibody): significantly decreased

O=C(O)CCc1cccc2c1O[C@H]1C[C@@H](O)C(/C=C/[C@@H](O)CC3CCCCC3)[C@@H]21 (stereo partly drawn)
Inhibition rate of MCP-1 production of THP-1 cells [1]: 87%

O=C(O)CCc1cccc2c1O[C@H]1C[C@@H](O)C(/C=C/[C@@H](O)c3ccccc3)[C@@H]21 (stereo partly drawn)
Inhibition rate of MCP-1 production of THP-1 cells [1]: 58%

CCCCC[C@H](O)/C=C/[C@H]1[C@H](O)CC(=O)[C@@H]1CCCCCCC(=O)O [PGE1, prostaglandin E1]
MCP-1 production of THP-1 cells (effect in words) [1]: inhibited

CCCCC[C@H](O)/C=C/[C@H]1C(=O)C=C[C@@H]1C/C=C\CCCC(=O)O [PGJ2, prostaglandin J2]
MCP-1 ([2]; LPS 10 ng/ml + PGJ2 10 μM (21872 with LPS alone)): 6 pg/10^6 cells
RANTES produced [9]: 2403 pg/5×10^5 cells
MCP-1 ([4]; TPA 25 nM + PGJ2 10 μM (225 with TPA alone)): 2 pg/10^6 cells

O=C(O)COc1cccc2c1O[C@H]1C[C@@H](O)C(/C=C/[C@@H](O)c3ccccc3)[C@@H]21 (stereo partly drawn)
Inhibition rate of MCP-1 production of THP-1 cells [1]: 61%

CCCCC[C@H](O)/C=C/[C@H]1[C@H](O)CC(=O)[C@@H]1C/C=C\CCCC(=O)O [PGE2, prostaglandin E2]
MCP-1 production of THP-1 cells (effect in words) [1]: inhibited

CC(C)(CO)Cc1cccc2c1O[C@H]1C[C@@H](O)C(/C=C/[C@@H](O)C(C)(C)Oc3ccccc3)[C@@H]21 (stereo partly drawn)
Inhibition rate of MCP-1 production of THP-1 cells [1]: 28%

O=C(O)CCc1cccc2c1O[C@H]1C[C@@H](O)C(/C=C/[C@@H](O)C3CCCCC3)[C@@H]21 (stereo partly drawn)
Inhibition rate of MCP-1 production of THP-1 cells [1]: 85%

CC(O)CCc1cccc2c1O[C@H]1C[C@@H](O)C(/C=C/[C@@H](O)C(C)(C)Oc3ccccc3)[C@@H]21 (stereo partly drawn)
Inhibition rate of MCP-1 production of THP-1 cells [1]: 4%
